This is an account of results in patent US9546129B2, “DTPA prodrugs, compositions thereof, and methods of using the same” (priority 2012, dated 2017).

The nature of series [1]: Aqueous solubility, preliminary test. The class given is physicochemical. Conditions: thermodynamic from solid; distilled water, 10 minutes stirring, visual check, sample JH012B; read-out: Approximate solubility. How it is done: A small sample of C2E2 (0.1 g, JH012B) was weighed out and placed in a 25 mL graduated cylinder. Increasing volumes of distilled water were added according to the chart below:
After each addition of the indicated amount of water, the mixture was stirred for 10 minutes and visually checked for any dissolved parts of the sample. […] The approximate solubility is therefore 10-50 g/L.

The nature of series [2]: Stability of C2E2 in plasma (human). Particulars: 37° C. The class given is in vitro ADME. The procedure: Prior to the study, 975 μL of plasma (Rat, Beagle and Human) was preheated to 37° C. in Eppendorff tubes and the test compound (C2E2) was prepared in DI water (10 mg/mL). The C2E2 was from Lot 050 obtained using Method 2. To initiate the study, 25 μL of the C2E2 solution was added to the pre-heated plasma and briefly vortexed, to mix. At 0, 15, 30, 60 and 120 minutes a 100 μL sample of plasma was taken, an equal volume of cold acetonitrile was added and mixed to precipitate plasma proteins. Samples were centrifuged at 4° C. and 14,000×g for 10 minutes to remove precipitated proteins, the supernatant was collected and the C2E2 concentration determined by HPLC-CAD. All conditions were repeated in triplicate.
HPLC Detection Methods: C2E2 analysis was performed on a prominence HPLC (Shimadzu Corporation, Kyoto, Japan) equipped with a Corona Ultra charged […] detector (CAD) (Thermo scientific, Sunnyvale, Calif.). […]
The gradient is 0.01-34.99 min: 22% B; 35.00-44.99 min: 33% B; 45.00-60.00 min: 38% B. The flow rate is 1.0 mL/min, a Thermo Hypersil ODS column (150 mm 4.6 mm i.d. with 5.0 μm particles) will be used, injection volume will be 10 μL and column oven temperature maintained at 25° C. […] The limit of quantification is 0.35 μg/mL. […]

Series [3] relates to Chinese hamster ovary (CHO) cells. In words: In vitro chromosomal aberration assay. It is filed as cell-based. The procedure: The objective of this in vitro assay was to evaluate the ability of C2E2 to induce chromosomal aberrations in cultured Chinese hamster ovary (CHO) cells with and without an exogenous metabolic activation system.
C2E2 was prepared in cell culture grade water (CCGW) and formed a colorless, transparent, solution. The C2E2 was from Lot 050 obtained using Method 2. Subsequent stocks were prepared by serial dilution in vehicle and all treatments were administered into 10 mL cultures in a volume of 10%. Vehicle control cultures were treated with 100 μL/mL per culture. The treatment periods were for 3 hours with and without metabolic activation or approximately 20 hours without metabolic activation.
In an initial chromosomal aberration assay (B1 test), C2E2 concentrations of 6.92, 9.89, 14.1, 20.2, 28.8, 41.2, 58.8, 84.0, 120, 172, 245, 350, and 500 μg/mL were tested in duplicate cultures in the 3- and 20-hour tests without S9 and in the 3-hour test with S9 metabolic activation. All cultures, under all test conditions, were harvested approximately 20 hours from the initiation of treatment. At culture termination, viable cells were counted and population doubling was calculated for measurement of cytotoxicity to support selection of dose levels for aberration analysis. Visual observations of cultures for general cell health and confluence were made prior to termination.

≈ marks a conversion by molar mass, not a printed value.

Regarding `CCOC(=O)CN(CCN(CCN(CC(=O)O)CC(=O)OCC)CC(=O)O)CC(=O)O` [C2E2, 6,9-bis(carboxymethyl)-3-(2-ethoxy-2-oxoethyl)-11-oxo-12-oxa-3,6,9-triazatetradecan-1-oic acid], the solubility at 10 min in series [1] lay in the range of 10 to 50 mg/mL (≈ 22.2 to 111 mM). Moreover, the C2E2 remaining entry in series [2] (after 2 hours) is “approximately 90%”. Further, in series [2] (up to two hours), the “Metabolism in plasma (observation)” value was “minimal or not detected”. Further, the “Reduction in the mitotic index compared to vehicle control” value in series [3] (14.1 μg/mL, 20-hour test without S9) was 53%. Also, in series [3] (3-hour treatment with and without S9, up to 500 μg/mL), the “Cytotoxicity (observation)” value was “no relevant cytotoxicity”. In addition, the “Induction of chromosomal aberrations” value in series [3] (with and without S9, up to cytotoxicity limiting dose levels and 500 μg/mL) is listed as “negative”.

Broadly, the solubility is the dissolved amount per volume that the medium holds.
